Assay results published in patent US10980794B2, “PRMT5 inhibitors and uses thereof” (Epizyme, Inc., priority 2012, dated 2021).

How the values were obtained:
Z-138 cell line = assay: Z-138 Proliferation Assay (Cell Titer Glo, 5 days); type: cell-based; details: Z-138 cells
Description: RPMI/Glutamax medium, penicillin-streptomycin, heat inactivated fetal bovine serum were purchased from Life Technologies, Grand Island, N.Y., USA. V-bottom polypropylene 384-well plates were purchased from Greiner Bio-One, Monroe, N.C., USA. Cell culture 384-well white opaque plates were purchased from Perkin Elmer, Waltham, Mass., USA. Cell-Titer Glo® was purchased from Promega Corporation, Madison, Wis., USA. SpectraMax M5 plate reader was purchased from Molecular Devices LLC, Sunnyvale, Calif., USA.
A compound source plate was prepared by performing triplicate nine-point 3-fold serial dilutions in DMSO, beginning at 10 mM (final top concentration of compound in the assay was 20 μM and the DMSO was 0.2%). A 100 nL aliquot from the compound stock plate was added to its respective well in the cell plate. […] Luminescence was read in the SpectraMax M5 microplate reader. The concentration of compound inhibiting cell viability by 50% was determined using a 4-parametric fit of the normalized dose response curves.

[1] = system: symmetric di-methyl arginine in Z-138 cells; assay: Z-138 Methylation Assay (In Cell Western for symmetric di-methyl arginine and DNA content); type: cell-based; details: read-out: ICW EC50
Description: [formula] [formula] Where top and bottom are the normally allowed to float, but may be fixed at 100 or 0 respectively in a 3-parameter fit. The Hill Coefficient normally allowed to float but may also be fixed at 1 in a 3-parameter fit. Y is the % inhibition and X is the compound concentration.
RPMI/Glutamax medium, penicillin-streptomycin, heat inactivated fetal bovine serum, and D-PBS were purchased from Life Technologies, Grand Island, N.Y., USA. Odyssey blocking buffer, 800 CW goat anti-rabbit IgG (H+L) antibody, and Licor Odyssey infrared scanner were purchased from Licor Biosciences, Lincoln, Nebr., USA. Symmetric di-methyl arginine antibody was purchased from EMD Millipore, Billerica, Mass., USA. 16% Paraformaldehyde was purchased from Electron Microscopy Sciences, Hatfield, Pa., USA. […]
First, the ratio for each well was determined by:
Each plate included fourteen control wells of DMSO only treatment (minimum inhibition) as well as fourteen control wells for maximum inhibition treated with 3 μM of a reference compound (Background wells). The average of the ratio values for each control type was calculated and used to determine the percent inhibition for each test well in the plate. […] Percent inhibition was determined and IC50 curves were generated using triplicate wells per concentration of compound.

Compound `CN(C[C@H](O)CN1CCc2ccccc2C1)C(=O)c1cc(NC2CCOCC2)ncn1` [Compound 232] has an EC50 (Z-138 cell line) of 1000 to 10000 nM and an EC50 [1] of 101 to 1000 nM.
